# What was measured:
# SHP2 protein [1] = target: T1, SHP2 protein (Homo sapiens, UniProt Q06124); assay: Measurement of SHP2 protein degradation in MV-4-11 cells (western blotting); assay type: cell-based; set-up: endogenous in cells; conditions: harvested after 24 hours
# T1 sequence (Q06124 1-593): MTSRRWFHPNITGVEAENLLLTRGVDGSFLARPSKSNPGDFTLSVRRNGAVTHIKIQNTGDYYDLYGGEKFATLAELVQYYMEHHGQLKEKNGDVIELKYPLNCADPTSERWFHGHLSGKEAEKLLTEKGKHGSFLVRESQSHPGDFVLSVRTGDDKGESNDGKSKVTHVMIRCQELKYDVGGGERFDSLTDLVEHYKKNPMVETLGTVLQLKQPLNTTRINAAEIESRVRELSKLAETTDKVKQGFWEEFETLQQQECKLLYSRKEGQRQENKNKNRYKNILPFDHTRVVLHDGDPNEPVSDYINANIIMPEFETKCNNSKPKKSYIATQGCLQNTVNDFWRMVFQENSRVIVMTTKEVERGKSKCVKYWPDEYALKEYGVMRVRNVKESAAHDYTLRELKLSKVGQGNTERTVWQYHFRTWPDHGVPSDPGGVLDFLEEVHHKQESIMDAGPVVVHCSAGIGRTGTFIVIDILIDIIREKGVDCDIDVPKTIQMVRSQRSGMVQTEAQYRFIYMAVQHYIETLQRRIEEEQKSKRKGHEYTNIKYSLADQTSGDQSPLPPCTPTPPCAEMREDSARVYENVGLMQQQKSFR
# Protocol: MV-4-11 cells were treated with the synthesized Example compounds, and the amount of SHP2 protein present in the cells was measured using western blotting detection. The protocol for the experiment conducted using MV-4-11 cells is as follows.
# [Culture] MV-4-11 cells were resuspended in IMDM MEDIUM (Hyclone, SH30228.01), 5% FBS (Hyclone, SV30207.02), 1% Penicillin-streptomycin (Welgene, LS 202-02) media and seeded at 1×10^6/mL in 12-well plates (1 mL each).
# [Compound treatment]12-well plates were treated as follows. 10 mM stock dissolved in DMSO was serially diluted 1/100 or 1/10 with media, and the compounds were treated to the cells at a final concentration of 0.01, 0.1, 1 μM or 0.001, 0.01, 0.1 μM, and harvested after 24 hours. For the negative control group, DMSO diluted 1/100 or 1/1000 in media was added (3 μL DMSO+297 μL media or 1 μL DMSO+999 μL media).
# [Harvest] Each well was pipetted with a 1 mL pipette, collected in a 1.5 mL microtube, and centrifuged (500 g, 5 min, 4° C.). The supernatant was removed, washed with PBS, and centrifuged again (500 g, 5 min, 4° C.). The supernatant was removed and a pellet was prepared.
# [Cell lysis and sample preparation] Lysis buffer was prepared as follows. RIPA buffer (Biosesang, RC2038-050-00)+0.5 mM PMSF (SIGMA, P7626)+1× Protease/Phosphatase Inhibitor (Cell signaling, 5872S) were added at 50 μL per tube and incubated on ice for 30 minutes (vortexed at 0 and 30 minutes). After sonication (10 sec pulse, 30 sec rest, 5 cycles, 70% amplification) and centrifugation (15,000 g, 15 min, 4° C.), only the supernatant was transferred to a microtube. RIPA buffer 7.5 μL and sample 2.5 μL were added to a 96-well plate to dilute to 1/4, and then BCA Protein Assay Kit (iNtRON, 21071) A and B were mixed in a 50:1 ratio and 200 μL each was added. After that, the plate was incubated at 37° C. for 30 minutes and left at room temperature for 10 minutes. After shaking for 10 seconds with a SYNERGY H1 microplate reader from BioTek, the absorbance was measured at 562 nm. The protein was quantified using the measured value to prepare a sample, which was then incubated at 70° C. for 10 minutes. The sample buffer used at this time is a mixture of NuPAGE or Bolt 4× sample buffer (Invitrogen) and each 10× sample reducing agent according to the gel to be used, and RIPA buffer was used for protein dilution.
# [Western blotting detection] Equal amounts of samples were loaded onto NuPAGE or Bolt Bis-tris 4-12% gradient gels and run (200 V, 35 min). This was transferred to […] NC membranes using Trans-blot Turbo (BIO-RAD) (1.3 A constant, 25 V limit, 15 min), and was blocked at room temperature for 1 hour with Skim milk or Intercept Blocking Buffer (LI-COR, 927-60001):0.1% TBST=1:1. Anti-SHPTP2 Mouse (1:500 in 2% BSA/0.2% TBST, size: 70 kDa, Santacruz sc-7384) was incubated overnight at 4° C., and Anti-GAPDH Rabbit (1:2,000 in 2% BSA/0.2% TBST, size: 37 kDa, CST #2118) was incubated at room temperature for 1.5 hours or 3 hours. After washing three times for 5 minutes each with 0.2% TBST washing buffer, secondary antibodies Anti-Mouse IgG (1:5,000 in 2% BSA/0.2% TBST, CST) and IRDye® 680RD Goat anti-Rabbit IgG Secondary Antibody (1:10,000 in 2% BSA/0.2% TBST, LI-COR 926-68071) were added, and incubated on a rocker at room temperature for 45 minutes. The resultants were washed five times for 5 minutes each with 0.2% TBST washing buffer, and detected using LI-COR's Odyssey. GAPDH was detected with a 700 nm channel, and SHPTP2 was detected using SuperSignal West Pico PLUS Chemiluminescent Substrate.
# SHP2 protein [2] = target: T1, SHP2 protein; assay: Measurement of SHP2 protein degradation in NCI-H358 cells (western blotting); assay type: cell-based; set-up: endogenous in cells; host or cells: NCI-H358; conditions: harvested after 24 hours
# Method in brief: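 H358 cells in RPMI1640/25 mM HEPES/10% FBS, cultured 24 h, then exposed to compound at final 0.001, 0.01 and 0.1 μM for 24 h against a DMSO control. Lysates were normalised for protein by BCA and probed by western blot for SHP2, with GAPDH as loading control.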
SHP2% degradation (SHP2 protein [1]; 0.01 μM) [%],SHP2% degradation (SHP2 protein [1]; 0.1 μM) [%],SHP2% degradation (SHP2 protein [2]; 0.01 μM) [%],SHP2% degradation (SHP2 protein [2]; 0.1 μM) [%],Compound
81.1,99.7,–,–,"Cc1ncsc1-c1ccc(CNC(=O)[C@@H]2C[C@@H](O)CN2C(=O)[C@@H](NC(=O)C2(F)CC2)C(C)(C)C)c(O[C@H]2CC[C@H](C(=O)N3CC(Nc4nccc(Sc5cnc(N6CCC(C)(N)CC6)cn5)c4Cl)C3)CC2)c1 [Example 21, (2S,4R)—N-(2-(((1R,4S)-4-(3-((4-((5-(4-amino-4-methylpiperidin-1-yl)pyrazin-2-yl)thio)-3-chloropyridin-2-yl)amino)azetidine-1-carbonyl)cyclohexyl)oxy)-4-(4-methylthiazol-5-yl)benzyl)-1-((S)-2-(1-fluorocyclopropane-1-carboxamido)-3,3-dimethylbutanoyl)-4-hydroxypyrrolidine-2-carboxamide]"
22.3,62.0,–,–,"Cc1ncsc1-c1ccc(CNC(=O)[C@@H]2C[C@@H](O)CN2C(=O)[C@@H](NC(=O)C2(F)CC2)C(C)(C)C)c(O[C@H]2CC[C@H](CN3CC(Nc4cccc(Sc5cnc(N6CCC(C)(CN)CC6)cn5)c4Cl)C3)CC2)c1 [Example 5, (2S,4R)—N-(2-(((1R,4S)-4-((3-((3-((5-(4-(aminomethyl)-4-methylpiperidin-1-yl)pyrazin-2-yl)thio)-2-chlorophenyl)amino)azetidin-1-yl)methyl)cyclohexyl)oxy)-4-(4-methylthiazol-5-yl)benzyl)-1-((S)-2-(1-fluorocyclopropane-1-carboxamido)-3,3-dimethylbutanoyl)-4-hydroxypyrrolidine-2-carboxamide]"
98.2,99.,–,–,"CC(=O)N[C@H](C(=O)N1C[C@H](O)C[C@H]1C(=O)NCc1ccc(-c2scnc2C)cc1O[C@H]1CC[C@H](C(=O)N2CCC(Nc3nccc(Sc4cnc(N5CCC(C)(CN)CC5)cn4)c3Cl)CC2)CC1)C(C)(C)C [Example 41, (2S,4R)-1-((S)-2-acetamido-3,3-dimethylbutanoyl)-N-(2-(((1R,4S)-4-(4-((4-((5-(4-(aminomethyl)-4-methylpiperidin-1-yl)pyrazin-2-yl)thio)-3-chloropyridin-2-yl)amino)piperidine-1-carbonyl)cyclohexyl)oxy)-4-(4-methylthiazol-5-yl)benzyl)-4-hydroxypyrrolidine-2-carboxamide]"
19.9,99.8,–,–,"Cc1ncsc1-c1ccc(CNC(=O)[C@@H]2C[C@@H](O)CN2C(=O)[C@@H](NC(=O)C2(F)CC2)C(C)(C)C)c(OC2CCN(C(=O)C3(F)CCN(c4nccc(Sc5cnc(N6CCC(C)(CN)CC6)cn5)c4Cl)CC3)CC2)c1 [Example 69, (2S,4R)—N-(2-((1-(1-(4-((5-(4-(aminomethyl)-4-methylpiperidin-1-yl)pyrazin-2-yl)thio)-3-chloropyridin-2-yl)-4-fluoropiperidine-4-carbonyl)piperidin-4-yl)oxy)-4-(4-methylthiazol-5-yl)benzyl)-1-((S)-2-(1-fluorocyclopropane-1-carboxamido)-3,3-dimethylbutanoyl)-4-hydroxypyrrolidine-2-carboxamide]"
97.7,99.5,–,–,"CC(=O)N[C@H](C(=O)N1C[C@H](O)C[C@H]1C(=O)NCc1ccc(-c2scnc2C)cc1O[C@H]1CC[C@H](C(=O)N2CC(Nc3nccc(Sc4cnc(N5CCC(C)(CN)CC5)cn4)c3Cl)C2)CC1)C(C)(C)C [Example 38, (2S,4R)-1-((S)-2-acetamido-3,3-dimethylbutanoyl)-N-(2-(((1R,4S)-4-(3-((4-((5-(4-(aminomethyl)-4-methylpiperidin-1-yl)pyrazin-2-yl)thio)-3-chloropyridin-2-yl)amino)azetidine-1-carbonyl)cyclohexyl)oxy)-4-(4-methylthiazol-5-yl)benzyl)-4-hydroxypyrrolidine-2-carboxamide]"
83.1,100.0,–,–,"Cc1ncsc1-c1ccc(CNC(=O)[C@@H]2C[C@@H](O)CN2C(=O)[C@@H](NC(=O)C2(F)CC2)C(C)(C)C)c(O[C@H]2CC[C@H](C(=O)N3CCC(Nc4nccc(Sc5cnc(N6CCC(C)(N)CC6)cn5)c4Cl)CC3)CC2)c1 [Example 24, (2S,4R)—N-(2-(((1R,4S)-4-(4-((4-((5-(4-amino-4-methylpiperidin-1-yl)pyrazin-2-yl)thio)-3-chloropyridin-2-yl)amino)piperidine-1-carbonyl)cyclohexyl)oxy)-4-(4-methylthiazol-5-yl)benzyl)-1-((S)-2-(1-fluorocyclopropane-1-carboxamido)-3,3-dimethylbutanoyl)-4-hydroxypyrrolidine-2-carboxamide]"
–,–,66.8,97.7,"CC(=O)N[C@H](C(=O)N1C[C@H](O)C[C@H]1C(=O)NCc1ccc(-c2scnc2C)cc1O[C@H]1CC[C@H](C(=O)N2CCC(N3CCOc4c(Sc5cnc(N6CCC(C)(CN)CC6)cn5)cccc43)CC2)CC1)C(C)(C)C [Example 35, (2S,4R)-1-((S)-2-acetamido-3,3-dimethylbutanoyl)-N-(2-(((1r,4S)-4-(4-(8-((5-(4-(aminomethyl)-4-methylpiperidin-1-yl)pyrazin-2-yl)thio)-2,3-dihydro-4H-benzo[b][1,4]oxazin-4-yl)piperidine-1-carbonyl)cyclohexyl)oxy)-4-(4-methylthiazol-5-yl)benzyl)-4-hydroxypyrrolidine-2-carboxamide]"
–,–,98.0,99.9,"Cc1cn([C@H](C(=O)N2C[C@H](O)C[C@H]2C(=O)NCc2ccccc2OC2CCN(C(=O)C3CCN(c4nccc(Sc5cnc(N6CCC7(CC6)CO[C@@H](C)[C@H]7N)c(CO)n5)c4Cl)CC3)CC2)C(C)C)nn1 [Example 111, (2S,4R)—N-(2-((1-(1-(4-((5-((3S,4S)-4-amino-3-methyl-2-oxa-8-azaspiro[4.5]decan-8-yl)-6-(hydroxymethyl)pyrazin-2-yl)thio)-3-chloropyridin-2-yl)piperidine-4-carbonyl)piperidin-4-yl)oxy)benzyl)-4-hydroxy-1-((S)-3-methyl-2-(4-methyl-1H-1,2,3-triazol-1-yl)butanoyl)pyrrolidine-2-carboxamide]"

# Reference: patent US20260144788A1, “COMPOUND FOR SHP2 PROTEIN DEGRADATION AND MEDICAL USES THEREOF” (UBIX THERAPEUTICS, INC., priority 2022, published 2026)
